Assays:
[1] = tested on: control sera (pooled serum of ten healthy LUMC hospital workers; commercial negative donor pooled serum from the Dutch bloodbank); assay type: binding, human; parameters: Binding of Control serum LUMC to linear peptides / Binding of Control serum Blood-bank to linear peptides / Binding of Control serum LUMC to looped peptides / Binding of Control Serum Blood-Bank to Looped peptides / Binding of Control serum LUMC to linear peptides of the protein M of SARS-CoV Urbani / Binding of Control serum Blood-bank to linear peptides of the protein M of SARS-CoV Urbani / Binding of Control serum LUMC to looped peptides of the protein M of SARS-CoV Urbani / Binding of Control Serum Blood-Bank to Looped peptides of the protein M of SARS-CoV Urbani: unit not given here
[2] = tested on: recombinant human anti-SARS-CoV antibody 03-018; assay type: binding; parameters: Binding of antibody 03-018 to linear peptides of the N protein of SARS-CoV Urbani / Binding of antibody 03-018 to looped/cyclic peptides of the N protein of SARS-CoV Urbani: unit not given here
[3] = tested on: antibodies in sera from SARS patients (sera 1a, 1b, 2, 6, 37, 62, London, SARS-yellow, SARS-green); assay type: binding, human; parameters: Binding of serum 6 to linear peptides of protein X1 of SARS-CoV Urbani / Binding of serum 37 to linear peptides of protein X1 of SARS-CoV Urbani / Binding of serum 6 to looped/cyclic peptide (PEPSCAN-ELISA) / Binding of serum 37 to looped/cyclic peptide (PEPSCAN-ELISA) / Binding of serum 37 to looped/cyclic peptides of protein X1 of SARS-CoV Urbani / Binding of serum 6 to linear peptides of protein X2 / Binding of serum 37 to linear peptides of protein X2 / Binding of serum 37 to looped/cyclic peptides of protein X2 of SARS-CoV Urbani / Binding of serum 6 to linear peptides of protein M of SARS-CoV Urbani / Binding of serum 37 to linear peptides of protein M of SARS-CoV Urbani / Binding of serum 6 to looped/cyclic peptides of protein M of SARS-CoV Urbani / Binding of serum 37 to looped/cyclic peptides of protein M of SARS-CoV Urbani / Binding of serum 6 to linear peptides of protein X3 of SARS-CoV Urbani / Binding of serum 37 to linear peptides of protein X3 of SARS-CoV Urbani / Binding of serum 37 to looped/cyclic peptides of protein X3 of SARS-CoV Urbani / Binding of serum 6 to linear peptides of protein X4 of SARS-CoV Urbani / Binding of serum 37 to linear peptides of protein X4 of SARS-CoV Urbani / Binding of serum 37 to looped/cyclic peptides of protein X4 of SARS-CoV Urbani / Binding of serum 6 to linear peptides of protein X5 of SARS-CoV Urbani / Binding of serum 37 to linear peptides of protein X5 of SARS-CoV Urbani / Binding of serum 37 to looped/cyclic peptides of protein X5 of SARS-CoV Urbani / Binding of serum 6 to linear peptides of protein N of SARS-CoV Urbani / Binding of serum 37 to linear peptides of protein N of SARS-CoV Urbani / Binding of serum 6 to linear peptide (PEPSCAN-ELISA) / Binding of serum 1a to looped/cyclic peptides of protein N of SARS-CoV Urbani / Binding of serum 1b to looped/cyclic peptides of protein N of SARS-CoV Urbani / Binding of serum 2 to looped/cyclic peptides of protein N of SARS-CoV Urbani / Binding of serum 6 to looped/cyclic peptides of protein N of SARS-CoV Urbani / Binding of serum 37 to looped/cyclic peptides of protein N of SARS-CoV Urbani / Binding of serum 62 to looped/cyclic peptides of protein N of SARS-CoV Urbani / Binding of serum London to looped/cyclic peptides of protein N of SARS-CoV Urbani / Binding of serum SARS-green to looped/cyclic peptides of protein N of SARS-CoV Urbani: unit not given here
[4] = tested on: rabbit serum obtained by immunizing a rabbit with the SARS-CoV strain Frankfurt 1; assay type: binding; parameters: Binding of a rabbit serum to linear peptides / Binding of a rabbit serum to looped peptides / Rabbit serum linear peptides / Rabbit serum looped peptides / Binding of a rabbit serum to linear peptides of protein N of SARS-CoV Urbani (Rabbit serum linear peptides) / Binding of a rabbit serum to looped/cyclic peptides of protein N of SARS-CoV Urbani (Rabbit serum looped peptides): unit not given here

Sequence | Binding of antibody 03-018 to linear peptides of the N protein of SARS-CoV Urbani [2] | Binding of antibody 03-018 to looped/cyclic peptides of the N protein of SARS-CoV Urbani [2] | Binding of serum 1a to linear peptides of protein N of SARS-CoV Urbani [3] | Binding of serum 1a to looped/cyclic peptides of protein N of SARS-CoV Urbani [3] | Binding of serum 1b to linear peptides of protein N of SARS-CoV Urbani [3] | Binding of serum 1b to looped/cyclic peptides of protein N of SARS-CoV Urbani [3] | Binding of serum 2 to linear peptides of protein N of SARS-CoV Urbani [3] | Binding of serum 2 to looped/cyclic peptides of protein N of SARS-CoV Urbani [3] | Binding of serum 6 to linear peptides of protein N of SARS-CoV Urbani [3] | Binding of serum 6 to looped/cyclic peptides of protein N of SARS-CoV Urbani [3] | Binding of serum 37 to linear peptides of protein N of SARS-CoV Urbani [3] | Binding of serum 37 to looped/cyclic peptides of protein N of SARS-CoV Urbani [3] | Binding of serum 62 to linear peptides of protein N of SARS-CoV Urbani [3] | Binding of serum 62 to looped/cyclic peptides of protein N of SARS-CoV Urbani [3] | Binding of serum London to linear peptides of protein N of SARS-CoV Urbani [3] | Binding of serum London to looped/cyclic peptides of protein N of SARS-CoV Urbani [3] | Binding of serum SARS-green to linear peptides of protein N of SARS-CoV Urbani [3] | Binding of serum SARS-green to looped/cyclic peptides of protein N of SARS-CoV Urbani [3] | Binding of serum SARS-yellow to linear peptides of protein N of SARS-CoV Urbani [3] | Binding of serum SARS-yellow to looped/cyclic peptides of protein N of SARS-CoV Urbani [3] | also measured
STDNNQNGGRNGARP | 0.2 | 0.2 | 0.2 | 0.3 | 0.1 | 0.2 | 0.2 | 0.3 | 0.1 | 0.2 | 0.8 | 0.5 | 0.7 | 0.2 | 0.5 | 0.3 | 0.4 | 0.4 | 0.6 | 0.3 | Binding of Control Serum Blood-Bank to Looped peptides [1]: 0.5; Binding of Control serum Blood-bank to linear peptides [1]: 0.7; Binding of Control serum LUMC to linear peptides [1]: 0.6; Binding of Control serum LUMC to looped peptides [1]: 0.5; Binding of a rabbit serum to linear peptides of protein N of SARS-CoV Urbani (Rabbit serum linear peptides) [4]: 0.1; Binding of a rabbit serum to looped/cyclic peptides of protein N of SARS-CoV Urbani (Rabbit serum looped peptides) [4]: 0.2
TALTQHGKEELRFPR | 0.1 | 0.3 | 0.2 | 0.4 | 0.1 | 0.3 | 0.2 | 0.6 | 0.1 | 0.5 | 0.7 | 0.8 | 0.6 | 0.6 | 0.5 | 0.6 | 0.4 | 0.7 | 0.5 | 0.7 | Binding of Control Serum Blood-Bank to Looped peptides [1]: 0.8; Binding of Control serum Blood-bank to linear peptides [1]: 0.8; Binding of Control serum LUMC to linear peptides [1]: 0.6; Binding of Control serum LUMC to looped peptides [1]: 0.8; Binding of a rabbit serum to linear peptides of protein N of SARS-CoV Urbani (Rabbit serum linear peptides) [4]: 0.1; Binding of a rabbit serum to looped/cyclic peptides of protein N of SARS-CoV Urbani (Rabbit serum looped peptides) [4]: 0.4
TASWFTALTQHGKEE | 0.1 | 0.2 | 0.2 | 0.2 | 0.1 | 0.1 | 0.1 | 0.1 | 0.1 | 0.1 | 0.7 | 0.4 | 0.4 | 0.2 | 0.4 | 0.3 | 0.3 | 0.1 | 0.5 | 0.2 | Binding of Control Serum Blood-Bank to Looped peptides [1]: 0.4; Binding of Control serum Blood-bank to linear peptides [1]: 0.6; Binding of Control serum LUMC to linear peptides [1]: 0.5; Binding of Control serum LUMC to looped peptides [1]: 0.3; Binding of a rabbit serum to linear peptides of protein N of SARS-CoV Urbani (Rabbit serum linear peptides) [4]: 0.1; Binding of a rabbit serum to looped/cyclic peptides of protein N of SARS-CoV Urbani (Rabbit serum looped peptides) [4]: 0.7
TDEAQPLPQRQKKQP | 0.1 | 0.1 | 0.2 | 0.2 | 0.2 | 0.0 | 0.3 | 0.2 | 0.2 | 0.1 | 0.7 | 0.1 | 0.7 | 0.0 | 1.2 | 0.1 | 0.7 | 0.0 | 1.0 | 0.1 | Control Serum Blood-Bank Looped peptides [1]: 0.5; Control serum Blood-bank linear peptides [1]: 0.7; Control serum LUMC linear peptides [1]: 0.6; Control serum LUMC looped peptides [1]: 0.2; Binding of a rabbit serum to linear peptides of protein N of SARS-CoV Urbani (Rabbit serum linear peptides) [4]: 0.1; Binding of a rabbit serum to looped/cyclic peptides of protein N of SARS-CoV Urbani (Rabbit serum looped peptides) [4]: 0.0
